The record followed here is publication PMC6531917, “A Cell-Permeant Mimetic of NMN Activates SARM1 to Produce Cyclic ADP-Ribose and Induce Non-apoptotic Cell Death” (iScience, 2019).

A word on the IC50: it is the midpoint of a concentration-inhibition curve. In general, EC50 refers to the midpoint of the concentration-response curve. Low readings indicate a more potent agent, high ones a less potent agent.

Assay [1] has as its target T1, CD38 (Homo sapiens, UniProt P28907).
T1 construct: recombinant CD38 (reCD38)
T1 sequence (P28907 1-300): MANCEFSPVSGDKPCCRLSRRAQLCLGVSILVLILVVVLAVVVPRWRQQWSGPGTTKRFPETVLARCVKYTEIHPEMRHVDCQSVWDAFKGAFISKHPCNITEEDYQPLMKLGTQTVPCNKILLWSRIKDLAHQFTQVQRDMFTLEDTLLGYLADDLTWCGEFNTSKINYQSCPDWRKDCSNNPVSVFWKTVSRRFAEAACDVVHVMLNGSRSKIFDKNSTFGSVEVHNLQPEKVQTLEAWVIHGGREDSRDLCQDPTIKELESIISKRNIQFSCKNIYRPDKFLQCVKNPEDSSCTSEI
In words: inhibition of recombinant CD38 enzyme activity (Figure S5H). Format: biochemical.

Assay [2] deals with SARM1 (Homo sapiens, UniProt Q6SZW1). In words: biochemical.
In assay [3] the target is T1, CD38. In words: inhibition of recombinant CD38 enzyme activity (Figure S5H). The format is biochemical. The source holds these as a separate data set.
The target in assay [4] is T2, SARM1 (Homo sapiens, UniProt Q6SZW1).
T2 construct: SARM1-FLAG, immunoprecipitated; SARM1-dN (N-terminal mitochondria localization signal truncated)
T2 sequence (Q6SZW1 28-724): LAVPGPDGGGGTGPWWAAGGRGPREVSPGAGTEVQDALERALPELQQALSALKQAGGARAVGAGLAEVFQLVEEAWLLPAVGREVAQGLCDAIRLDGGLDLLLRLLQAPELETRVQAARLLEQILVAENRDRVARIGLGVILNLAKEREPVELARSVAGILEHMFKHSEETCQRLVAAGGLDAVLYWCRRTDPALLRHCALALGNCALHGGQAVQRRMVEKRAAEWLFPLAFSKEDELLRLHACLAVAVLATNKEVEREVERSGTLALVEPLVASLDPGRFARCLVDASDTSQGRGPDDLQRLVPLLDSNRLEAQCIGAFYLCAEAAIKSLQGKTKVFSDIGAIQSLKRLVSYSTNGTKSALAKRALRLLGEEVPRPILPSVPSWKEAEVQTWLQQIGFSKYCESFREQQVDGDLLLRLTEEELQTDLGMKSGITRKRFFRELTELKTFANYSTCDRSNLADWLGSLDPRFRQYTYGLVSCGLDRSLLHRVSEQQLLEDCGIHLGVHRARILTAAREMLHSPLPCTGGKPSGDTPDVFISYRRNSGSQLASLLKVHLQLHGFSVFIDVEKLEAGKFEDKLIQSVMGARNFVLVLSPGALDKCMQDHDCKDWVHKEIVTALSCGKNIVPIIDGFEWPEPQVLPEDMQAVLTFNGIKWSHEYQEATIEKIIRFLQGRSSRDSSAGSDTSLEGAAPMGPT
In words: εNAD NADase assay and HPLC activity assays of immunopurified SARM1 (activation); dose-response in lysate. The format is biochemical.

For `NC(=O)c1ccc[n+]([C@@H]2O[C@H](COP(O)(O)=S)[C@@H](O)[C@@H]2F)c1` [CZ-48], the 50% inhibitory concentration (IC50) in assay [1] is around 10 µM. The compound further displayed an EC50 in assay [2] of around 50 µM.

For the compound `NC(=O)c1ccc[n+]([C@@H]2O[C@H](COP(=O)(O)O)[C@@H](O)[C@H]2O)c1` [NMN], in assay [3], the “inhibition of recombinant CD38 enzyme activity (Figure S5H)” value was “In contrast to SARM1, recombinant CD38 (reCD38) was inhibited by both NMN (Figure S5H) and CZ-48”. The same compound displayed an EC50 in assay [4] of around 50 µM.
